Laboratory results taken from ChEMBL document CHEMBL1201862, “PubChem BioAssay data set” (2004).
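1) Cells in 96-well plates. 2) Compound, 48 h, 5 concentrations. 3) Linear interpolation between surrounding doses. 4) Unreached endpoint = highest concentration. At the GI50, growth is halved.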 Active and inactive are the calls of the source. Cut-off read from the data, not from the text of the source: active = GI50 up to about 1.1 µM and inactive = higher.

Tests used:
Experiment in all cases: inhibition of tumour cell growth, NCI panel, 48 h
[1] = system: NCI-H226
[2] = system: SNB-75
[3] = system: PC-3
[4] = system: T47D
[5] = system: TK-10
[6] = system: K562
[7] = system: EKVX
[8] = system: KM12
[9] = system: SK-MEL-28
[10] = system: BT-549
[11] = system: 786-0
[12] = system: MOLT-4
[13] = system: UACC-62
[14] = system: SR
[15] = system: HCC 2998
[16] = system: MDA-N
[17] = system: MCF7
[18] = system: LOX IMVI
[19] = system: NCI/ADR-RES
[20] = system: COLO 205
[21] = system: UACC-257
[22] = system: OVCAR-5
[23] = system: OVCAR-3
[24] = system: HCT-116
[25] = system: OVCAR-4
[26] = system: NCI-H460
[27] = system: A549
[28] = system: UO-31
[29] = system: SF-268
[30] = system: M14
[31] = system: SN12C
[32] = system: CAKI-1
[33] = system: MDA-MB-231
[34] = system: SF-295
[35] = system: DU-145
[36] = system: Hs-578T
[37] = system: HL-60
[38] = system: SK-MEL-2
[39] = system: HOP-62
[40] = system: HT-29
[41] = system: U-251
[42] = system: CCRF-CEM
[43] = system: SF-539
[44] = system: SNB-19
[45] = system: RXF 393
[46] = system: NCI-H23
[47] = system: SW-620
[48] = system: MDA-MB-435
[49] = system: ACHN
[50] = system: NCI-H522
[51] = system: IGROV-1
[52] = system: HCT-15
[53] = system: HOP-92
[54] = system: A498
[55] = system: Malme-3M
[56] = system: RPMI-8226
[57] = system: OVCAR-8
[58] = system: SK-OV-3
[59] = system: SK-MEL-5

SMILES: CCCCCCc1cc2cc(-c3csc(CC#N)n3)c(=O)oc2cc1O
- GI50 [1]: 22.9 µM (inactive)
- GI50 [2]: 32.1 µM (inactive)
- GI50 [3]: > 100 µM (inactive)
- GI50 [4]: > 100 µM (inactive)
- GI50 [5]: > 100 µM (inactive)
- GI50 [6]: > 69.2 µM (inactive)
- GI50 [7]: > 100 µM (inactive)
- GI50 [8]: 22.5 µM (inactive)
- GI50 [9]: > 100 µM (inactive)
- GI50 [10]: 6.17 µM (inactive)
- GI50 [11]: 7.62 µM (inactive)
- GI50 [12]: 43.1 µM (inactive)
- GI50 [13]: 14.4 µM (inactive)
- GI50 [14]: > 56.6 µM (inactive)
- GI50 [15]: > 100 µM (inactive)
- GI50 [16]: > 100 µM (inactive)
- GI50 [17]: > 49.4 µM (inactive)
- GI50 [18]: > 100 µM (inactive)
- GI50 [19]: 6.35 µM (inactive)
- GI50 [20]: > 100 µM (inactive)
- GI50 [21]: > 100 µM (inactive)
- GI50 [22]: > 100 µM (inactive)
- GI50 [23]: 11.1 µM (inactive)
- GI50 [24]: 5.89 µM (inactive)
- GI50 [25]: 3.45 µM (inactive)
- GI50 [26]: 8.55 µM (inactive)
- GI50 [27]: > 100 µM (inactive)
- GI50 [28]: 27 µM (inactive)
- GI50 [29]: 18.7 µM (inactive)
- GI50 [30]: > 100 µM (inactive)
- GI50 [31]: 99.1 µM (inactive)
- GI50 [32]: > 44.6 µM (inactive)
- GI50 [33]: 11.7 µM (inactive)
- GI50 [34]: 36.6 µM (inactive)
- GI50 [35]: > 100 µM (inactive)
- GI50 [36]: 12.4 µM (inactive)
- GI50 [37]: > 44.3 µM (inactive)
- GI50 [38]: > 100 µM (inactive)
- GI50 [39]: 34.9 µM (inactive)
- GI50 [40]: > 100 µM (inactive)
- GI50 [41]: 6.4 µM (inactive)
- GI50 [42]: > 49.2 µM (inactive)
- GI50 [43]: 5.71 µM (inactive)
- GI50 [44]: 14.4 µM (inactive)
- GI50 [45]: > 33.2 µM (inactive)
- GI50 [46]: 22.1 µM (inactive)
- GI50 [47]: 26.2 µM (inactive)
- GI50 [48]: > 100 µM (inactive)
- GI50 [49]: 21.9 µM (inactive)
- GI50 [50]: 10.4 µM (inactive)
- GI50 [51]: 29.8 µM (inactive)
- GI50 [52]: > 100 µM
- GI50 [53]: 7.48 µM (inactive)
- GI50 [54]: 56 µM (inactive)
- GI50 [55]: > 100 µM (inactive)
- GI50 [56]: 32.4 µM (inactive)
- GI50 [57]: 13 µM (inactive)
- GI50 [58]: 13.3 µM (inactive)
- GI50 [59]: 32.7 µM (inactive)

SMILES: C=C1C(=O)O[C@@H]2/C=C(\C)CC/C=C(/COC(C)=O)C[C@@H](OC(C)=O)[C@@H]12
- GI50 [1]: 19.8 µM (inactive)
- GI50 [2]: 50.1 µM (inactive)
- GI50 [3]: 16.1 µM (inactive)
- GI50 [4]: 11.4 µM (inactive)
- GI50 [5]: 7.83 µM (inactive)
- GI50 [6]: 3.21 µM (inactive)
- GI50 [7]: 11.1 µM (inactive)
- GI50 [8]: 14.8 µM (inactive)
- GI50 [9]: 8.99 µM (inactive)
- GI50 [10]: 3.91 µM (inactive)
- GI50 [11]: 5.18 µM (inactive)
- GI50 [12]: 3.45 µM (inactive)
- GI50 [13]: 12.4 µM (inactive)
- GI50 [14]: 2.16 µM (inactive)
- GI50 [15]: 16.5 µM (inactive)
- GI50 [16]: 6 µM (inactive)
- GI50 [17]: 3.71 µM (inactive)
- GI50 [18]: 5.19 µM (inactive)
- GI50 [19]: 17.9 µM (inactive)
- GI50 [20]: 3.44 µM (inactive)
- GI50 [21]: 13.4 µM (inactive)
- GI50 [22]: 17.4 µM (inactive)
- GI50 [23]: 4.49 µM (inactive)
- GI50 [24]: 3.85 µM (inactive)
- GI50 [25]: 20.2 µM (inactive)
- GI50 [26]: 12.1 µM (inactive)
- GI50 [27]: 37.4 µM (inactive)
- GI50 [28]: 8.87 µM (inactive)
- GI50 [29]: 11.3 µM (inactive)
- GI50 [30]: 12.6 µM (inactive)
- GI50 [31]: 11.3 µM (inactive)
- GI50 [32]: 7.48 µM (inactive)
- GI50 [33]: 14.9 µM (inactive)
- GI50 [34]: 53.7 µM (inactive)
- GI50 [35]: 6.79 µM (inactive)
- GI50 [36]: 10.4 µM (inactive)
- GI50 [37]: 2.03 µM (inactive)
- GI50 [38]: 16 µM (inactive)
- GI50 [39]: 22.9 µM (inactive)
- GI50 [40]: 4.24 µM (inactive)
- GI50 [41]: 18.7 µM (inactive)
- GI50 [42]: 0.718 µM (active)
- GI50 [43]: 16.2 µM (inactive)
- GI50 [44]: 29.2 µM (inactive)
- GI50 [45]: 9.38 µM (inactive)
- GI50 [46]: 13.6 µM (inactive)
- GI50 [47]: 3.94 µM (inactive)
- GI50 [48]: 14.2 µM (inactive)
- GI50 [49]: 4.38 µM (inactive)
- GI50 [50]: 1.16 µM (inactive)
- GI50 [51]: 13.4 µM (inactive)
- GI50 [52]: 3.28 µM
- GI50 [53]: 7.73 µM (inactive)
- GI50 [54]: 19 µM (inactive)
- GI50 [55]: 1.46 µM (inactive)
- GI50 [56]: 3.39 µM (inactive)
- GI50 [57]: 14.1 µM (inactive)
- GI50 [58]: 40.6 µM (inactive)
- GI50 [59]: 11.6 µM (inactive)

SMILES: C[C@]12CC[C@H](O)C[C@H]1CC[C@@H]1[C@@H]2CC[C@]2(C)[C@@H](C3=CC(=O)OC3)[C@@H](O)C[C@]12O [GITOXIGENIN]
- GI50 [1]: 3.12 µM (inactive)
- GI50 [2]: 4.15 µM (inactive)
- GI50 [3]: 1.44 µM (inactive)
- GI50 [4]: 3.65 µM (inactive)
- GI50 [5]: 0.625 µM (active)
- GI50 [6]: 3.38 µM (inactive)
- GI50 [7]: 0.785 µM (active)
- GI50 [8]: 4.85 µM (inactive)
- GI50 [9]: 5.13 µM (inactive)
- GI50 [10]: 1.89 µM (inactive)
- GI50 [11]: 0.995 µM (active)
- GI50 [12]: 0.408 µM (active)
- GI50 [13]: 2.62 µM (inactive)
- GI50 [14]: 0.977 µM (active)
- GI50 [15]: 2.47 µM (inactive)
- GI50 [16]: 2.42 µM (inactive)
- GI50 [17]: 2.05 µM (inactive)
- GI50 [18]: 2.9 µM (inactive)
- GI50 [19]: 1.61 µM (inactive)
- GI50 [20]: 2.61 µM (inactive)
- GI50 [21]: 2.2 µM (inactive)
- GI50 [22]: 2.81 µM (inactive)
- GI50 [23]: 0.457 µM (active)
- GI50 [24]: 1.66 µM (inactive)
- GI50 [25]: 1.4 µM (inactive)
- GI50 [26]: 0.499 µM (active)
- GI50 [27]: 0.445 µM (active)
- GI50 [28]: 0.914 µM (active)
- GI50 [29]: 0.845 µM (active)
- GI50 [30]: 2.45 µM (inactive)
- GI50 [31]: 0.566 µM (active)
- GI50 [32]: 1.58 µM (inactive)
- GI50 [33]: 4.93 µM (inactive)
- GI50 [34]: 1.41 µM (inactive)
- GI50 [35]: 1.04 µM (active)
- GI50 [36]: 0.968 µM (active)
- GI50 [37]: 1.62 µM (inactive)
- GI50 [38]: 2.17 µM (inactive)
- GI50 [39]: 1.11 µM (active)
- GI50 [40]: 3.27 µM (inactive)
- GI50 [41]: 2.22 µM (inactive)
- GI50 [42]: 0.51 µM (active)
- GI50 [43]: 0.849 µM (active)
- GI50 [44]: 4.45 µM (inactive)
- GI50 [45]: 1.15 µM (inactive)
- GI50 [46]: 0.682 µM (active)
- GI50 [47]: 3.18 µM (inactive)
- GI50 [48]: 3.01 µM (inactive)
- GI50 [49]: 0.451 µM (active)
- GI50 [50]: 0.435 µM (active)
- GI50 [51]: 2.86 µM (inactive)
- GI50 [52]: 2.58 µM
- GI50 [53]: 9.66 µM (inactive)
- GI50 [54]: 2.72 µM (inactive)
- GI50 [55]: 1.77 µM (inactive)
- GI50 [56]: 2.77 µM (inactive)
- GI50 [57]: 2.93 µM (inactive)
- GI50 [58]: 2.71 µM (inactive)
- GI50 [59]: 1.3 µM (inactive)
